Test results from PMC8083960, “Kanamycin-Mediated Conformational Dynamics of Escherichia coli Outer Membrane Protein TolC” (Frontiers in Molecular Biosciences, 2021).

Target: T1, TolC (Escherichia coli, UniProt P02930)
T1 construct: ~54 kDa by SDS-PAGE and MALDI; crystal structure cited as trimer, 471 residues per monomer
Test: isothermal titration calorimetry
Assay type: binding
Excerpt: isothermal titration calorimetry on TolC

T1 sequence (P02930 23-493): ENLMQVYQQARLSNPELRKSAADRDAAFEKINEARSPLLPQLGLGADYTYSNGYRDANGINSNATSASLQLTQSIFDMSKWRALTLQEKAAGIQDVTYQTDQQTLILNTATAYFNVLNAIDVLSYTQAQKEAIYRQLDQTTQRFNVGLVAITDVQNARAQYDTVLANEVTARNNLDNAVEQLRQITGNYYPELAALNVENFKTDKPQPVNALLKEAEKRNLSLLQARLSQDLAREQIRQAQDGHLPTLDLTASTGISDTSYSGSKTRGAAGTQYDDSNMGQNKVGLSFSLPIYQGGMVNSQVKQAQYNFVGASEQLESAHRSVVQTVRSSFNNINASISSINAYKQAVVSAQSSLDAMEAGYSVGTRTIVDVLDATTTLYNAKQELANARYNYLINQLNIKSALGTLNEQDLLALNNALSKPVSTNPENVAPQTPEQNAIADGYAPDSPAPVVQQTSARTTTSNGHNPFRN

**Q.** For NC[C@H]1O[C@H](O[C@H]2[C@H](O)[C@@H](O[C@H]3O[C@H](CO)[C@@H](O)[C@H](N)[C@H]3O)[C@H](N)C[C@@H]2N)[C@H](O)[C@@H](O)[C@@H]1O [kanamycin], which Kd is on record?
**A.** Its Kd is 42.7 µM.
